Test [1] has as its system L-428. Nature of the test: Inhibition of NFkappaB p50 subunit expression in nuclear fractions of human L428 cells at 2.5 ug/ml after 2 hrs by Western method. Format: functional, cell-based.
Test [2] concerns L-428. Nature of the test: Inhibition of NFkappaB p65 subunit expression in nuclear fractions of human L428 cells at 2.5 ug/ml after 2 hrs by Western method. In kind it is functional, cell-based.
For test [3], the system named is L-428. Nature of the test: Inhibition of NFkappaB p65 subunit expression in cytosolic fractions of human L428 cells at 2.5 ug/ml after 2 hrs by Western method. Format: functional, cell-based.
Test [4] has as its system L-428. Briefly: Cytotoxicity against human L428 cells after 48 by XTT assay. Format: functional, cell-based. A general note: Tetrazolium assays rely on reduction of a dye to a coloured formazan, in cell work by metabolically active cells.
In test [5] the test system is A549. Briefly: Anti-migratory activity against human A549 cells assessed as reduction in wound closure at 5.6 uM after 48 hrs by wound-scratch assay. In kind it is functional, cell-based.
A short description of test [6]: (§1) Inhibition of NF-kappaB (unknown origin) expressed in human L428 cells after 2 hrs by luciferase reporter gene assay. Format: cell-based. The settings on record: L-428, 2 h.
A further test is filed under the species Homo sapiens. The test is described as §1. Format: cell-based.
Test [7] relates to L-428. Briefly: Cytotoxicity against human L428 cells after 24 by XTT assay. Format: functional, cell-based.
Test [8] concerns L-428. Nature of the test: Inhibition of NFkappaB p50 subunit expression in cytosolic fractions of human L428 cells at 2.5 ug/ml after 2 hrs by Western method. Format: functional, cell-based.
The subject of test [9] is L-428. Briefly: Inhibition of NFkappaB RelB subunit expression in cytosolic fractions of human L428 cells at 2.5 ug/ml after 2 hrs by Western method. In kind it is functional, cell-based.
Test [10] concerns L-428. Briefly: Inhibition of NFkappaB RelB subunit expression in nuclear fractions of human L428 cells at 2.5 ug/ml after 2 hrs by Western method. In kind it is functional, cell-based.
Test [11] has as its system A549. Briefly: Anti-migratory activity against human A549 cells assessed as reduction in wound closure at 2.6 uM after 48 hrs by wound-scratch assay. Format: functional, cell-based.
Test [12] deals with A549. Nature of the test: Anti-migratory activity against human A549 cells assessed as reduction in wound closure at 7.94 uM after 48 hrs by wound-scratch assay. In kind it is functional, cell-based.

The source made the active and inactive calls. The rule behind the calls is not given here.

For orientation: IC50 means the concentration that inhibits the measured activity by half. Low values mean higher potency, high ones lower potency. On to `O=C(CCCCCCCCCN=C=S)CC(=O)N[C@H]1CCOC1=O`, for which the inhibition result with L-428 [1], in the test with L-428 [2], with L-428 [3], with L-428 [8], with L-428 [9] and with L-428 [10] was “Active” in each case. The results for the IC50 (in the test on L-428 [4]; in test [6]; in the test with L-428 [7]) were 12.4 µM, 4.1 µM and 13.3 µM, respectively. In addition, the result in the test with A549 [5] was Active. In addition, the inhibition result in the test filed under Homo sapiens is “Dose-dependent effect”.

In the case of `CCCCCCCCCC(=O)CC(=O)N[C@H]1CCOC1=O`, in the test filed under Homo sapiens, the inhibition entry was “Dose-dependent effect”.

With `O=C(CCCCCCCC(Cl)CN=C=S)CC(=O)N[C@H]1CCOC1=O` (some centres undefined), the inhibition result in the test with L-428 [1], in the test on L-428 [2], in the test on L-428 [3], with L-428 [8], in the test with L-428 [9] and with L-428 [10] was “Active” each time. Further, in the test on A549 [11], the outcome was Active. In addition, the IC50 came out at 18.3 µM in the test with L-428 [4], 12.8 µM in test [6] and 15.1 µM in the test with L-428 [7]. The inhibition entry in the test filed under Homo sapiens is “Dose-dependent effect”.

Regarding `CCCCCCCCCCCN=C=S`, the inhibition entry in the test listed under Homo sapiens is “Dose-dependent effect”.

With `C#CCCCCCCCCC(=O)CC(=O)N[C@H]1CCOC1=O`, the inhibition result in the test listed under Homo sapiens was “Dose-dependent effect”.

Turning to `CCCC(=O)N[C@H]1CCOC1=O`, the inhibition entry in the test filed under Homo sapiens is “Dose-dependent effect”.

Regarding `COc1cc(/C=C/C(=O)CC(=O)/C=C/c2ccc(O)c(OC)c2)ccc1O`, in the test filed under Homo sapiens, the inhibition entry is “Active”.

Take `CCCCCCCc1[nH]c2ccccc2c(=O)c1O`: the inhibition result in the test listed under Homo sapiens is “Dose-dependent effect”.

Regarding `O=C1C=C(Br)/C(=C/Br)O1`, in the test with A549 [12], the outcome was Active. Besides, the inhibition result in the test on L-428 [1], in the test with L-428 [2], with L-428 [3], with L-428 [8], in the test on L-428 [9] and in the test with L-428 [10] was “Active” each time. For the same molecule, the IC50 in the test with L-428 [4] came out at 3.05 µM; in test [6], 9.9 µM; in the test with L-428 [7], 5.16 µM. Further, the inhibition entry in the test filed under Homo sapiens is “Dose-dependent effect”.

The record behind these values is ChEMBL document CHEMBL4033709, “Quorum sensing modulators exhibit cytotoxicity in Hodgkin's lymphoma cells and interfere with NF-κB signaling” (Bioorg Med Chem Lett, 2017).
